In patent US7105679B2, “Heteroatom containing tetracyclic derivatives as selective estrogen receptor modulators” (priority 2001, dated 2006):
Several values for one entry are separate records, joined by “and”; a condition that tells them apart may be missing. Equal values may be shown once. Read-outs that look alike come from different tables or passages of the source.

Columns and labels:
[1] = molecular target: T1, human estrogen receptor α (Homo sapiens, UniProt P03372); assay: Estrogen Receptor α Flash Plate Assay (binding of radiolabeled estrogen)
T1 construct: purchased Panvera
T1 sequence (P03372 1-595): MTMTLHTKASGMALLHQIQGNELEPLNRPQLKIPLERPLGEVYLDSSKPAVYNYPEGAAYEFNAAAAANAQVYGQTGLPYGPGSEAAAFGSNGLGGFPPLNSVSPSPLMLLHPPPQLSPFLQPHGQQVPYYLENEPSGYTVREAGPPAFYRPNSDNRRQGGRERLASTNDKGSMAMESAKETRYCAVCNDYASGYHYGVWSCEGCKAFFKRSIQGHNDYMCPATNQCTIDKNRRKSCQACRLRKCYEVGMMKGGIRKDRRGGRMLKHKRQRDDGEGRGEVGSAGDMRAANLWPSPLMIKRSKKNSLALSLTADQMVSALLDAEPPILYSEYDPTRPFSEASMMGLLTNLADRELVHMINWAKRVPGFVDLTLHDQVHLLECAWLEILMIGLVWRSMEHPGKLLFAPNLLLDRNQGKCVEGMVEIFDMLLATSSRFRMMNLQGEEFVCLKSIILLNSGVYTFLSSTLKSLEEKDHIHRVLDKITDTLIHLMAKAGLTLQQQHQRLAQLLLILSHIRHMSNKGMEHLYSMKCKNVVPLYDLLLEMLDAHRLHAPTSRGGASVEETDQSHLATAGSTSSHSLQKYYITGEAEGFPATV
Experimental: This assay monitors binding of radiolabeled estrogen to the estrogen receptor. It is performed on a BioMek 2000 (Beckman). Plates are read in a scintillation counter (Packard TopCount), with decreased counts an indication of binding of a compound to the receptor.
The plate was sealed and incubated at 4° C. overnight.
On day two, each well was washed three times with 200 μL PBS, pH 7.2, at room temperature. To each well was then added 98 μL radiolabeled estrogen (0.5 nM, which equals 6 nCi for a 120 Ci/mmol batch, Amersham), diluted in ESB and 5 mM dithiothreitol (DTT). To individual wells were then added 2.5 μL test compound diluted in 30% (v/v) dimethyl sulfoxide/50 mM HEPES, pH 7.5. The wells were mixed three times by aspiration, the plate sealed and incubated at room temperature for one hour. The wells were then counted for 1 min in a TopCount scintillation counter (Packard).

MCF-7 cells = assay: MCF-7 Cell Proliferation Assay (14C-thymidine, agonist and antagonist mode); type: cell-based; settings: number in brackets = number of tests, NA = no detected activity at test concentration; for IC50: MCF7, antagonist mode with 10 nM 17β-estradiol
Experimental: This assay was run according to the procedure described by Welshons, et al., (Breast Cancer Res. Treat., 1987, 10(2), 169-75), with minor modification.
Briefly, MCF-7 cells (from Dr. C. Jordan, Northwestern University) were maintained in RPMI 1640 phenol red free medium (Gibco) in 10% FBS (Hyclone), supplemented with bovine insulin and non-essential amino acid (Sigma). The cells were initially treated with 4-hydoxyltamoxifen (10^−8 M) and let stand at 37° C. for 24 hours. Following this incubation with tamoxifen, the cells were treated with compounds at various concentrations.
Compounds to be tested in the agonist mode were added to the culture media at varying concentrations. Compounds to be treated in the antagonist mode were prepared similarly, and 10 nM 17β-estradiol was also added to the culture media. The cells were incubated for 24 hours at 37° C. Following this incubation, 0.1 μCi of ^14C-thymidine (56 mCi/mmol, Amersham) was added to the culture media and the cells were incubated for an additional 24 hours at 37° C. The cells were then washed twice with Hank's buffered salt solution (HBSS) (Gibco) and counted with a scintillation counter. The increase in the ^14C-thymidine in the compound treated cells relative to the vehicle control cells were reported as percent increase in cell proliferation.

hER-β = molecular target: T2, hER-β (Homo sapiens, UniProt Q92731); assay: Estrogen Receptor β Fluorescence Polarization Assay (binding of Fluormone ES2)
T2 construct: purchased Panvera
From the text: This assay monitors binding of a fluorescent analog of estrogen (Fluormone ES2, Panvera) to the estrogen receptor. Plates are read in a fluorometer that can be set to polarization mode. A decrease in […] relative to vehicle control is an indication of binding of a compound to the receptor.
It is crucial to avoid introduction of air bubbles into the reaction in each well of the 96 well plate throughout this procedure. (Bubbles on the surface of the reaction disrupt light flow, affecting the polarization reading.) However, it is also crucial to effectively mix the reaction components upon addition to the well.
On ice, a 2× standard mixture of Assay Buffer (Panvera), 10 nM DTT and 40 nM ES2 was prepared. On ice, a 2× reaction mixture of Assay Buffer (Panvera), and 20 nM hER-β (Panvera) and 40 nM ES2 was also prepared.
Dilutions of test compound were prepared in 30% (v/v) dimethyl sulfoxide/50 mM HEPES, pH 7.5. At this point, the dilutions were 40× the final required concentration.
The standard mixture at 50 μL was then added to each well. The reaction mixture at 48 μL was added to all wells. The compound dilution at 2.5 μL was added to the appropriate wells. The reaction mixtures were mixed using a manual pipette, a roll of aluminum foil adhesive cover was placed on the plate and the plate incubated at room temperature for 1 hour.

Ishikawa cells = assay: Alkaline Phosphatase Assay in Human Endometrial Ishikawa Cells (agonist and antagonist mode); type: cell-based; settings: number in brackets = number of tests, NA = no detected activity at test concentration; for EC50: agonist mode; for IC50: antagonist mode with 10 nM 17β-estradiol
Experimental: This assay was run according to the procedure described by Albert et a., Cancer Res, […], 50(11), 330-6-10, with minor modification.
Ishikawa cells (from ATCC) were maintained in DMEM/F12 (1:1) phenol red free medium (Gibco) supplemented with 10% calf serum (Hyclone). 24 hours prior to testing, the medium was changed to DMEM/F12 (1:1) phenol red free containing 2% calf serum.
Compounds to be tested in the agonist mode were added to the culture media at varying concentrations. Compounds to be treated in the antagonist mode were prepared similarly, and 10 nM 17β-estradiol was also added to the culture media. The cells were then incubated at 37° C. for 3 days. On the fourth day, the media was remove, 1 volume of 1× Dilution Buffer (Clontech) was added to the well followed by addition of 1 volume of Assay Buffer (Clontech). The cells were then incubated at room temperature for 5 minutes. […] The cells were incubated at room temperature for 10 minutes and then quantified on a luminometer. The increase of chemiluminescence over vehicle control was used to calculate the increase in alkaline phosphatase activity.

[2] = flash plate binding, 0.5 nM radiolabeled estrogen, number in brackets = No. of determinations, NA = no detected activity at test concentration, read-out: Estrogen Receptor α in μM (No.)
[3] = Homo sapiens, MCF7, agonist mode
[4] = fluorescence polarization binding, Fluormone ES2, number in brackets = No. of determinations, NA = no detected activity at test concentration, read-out: Estrogen Receptor β in μM (No.)

T2 sequence (Q92731 whole entry): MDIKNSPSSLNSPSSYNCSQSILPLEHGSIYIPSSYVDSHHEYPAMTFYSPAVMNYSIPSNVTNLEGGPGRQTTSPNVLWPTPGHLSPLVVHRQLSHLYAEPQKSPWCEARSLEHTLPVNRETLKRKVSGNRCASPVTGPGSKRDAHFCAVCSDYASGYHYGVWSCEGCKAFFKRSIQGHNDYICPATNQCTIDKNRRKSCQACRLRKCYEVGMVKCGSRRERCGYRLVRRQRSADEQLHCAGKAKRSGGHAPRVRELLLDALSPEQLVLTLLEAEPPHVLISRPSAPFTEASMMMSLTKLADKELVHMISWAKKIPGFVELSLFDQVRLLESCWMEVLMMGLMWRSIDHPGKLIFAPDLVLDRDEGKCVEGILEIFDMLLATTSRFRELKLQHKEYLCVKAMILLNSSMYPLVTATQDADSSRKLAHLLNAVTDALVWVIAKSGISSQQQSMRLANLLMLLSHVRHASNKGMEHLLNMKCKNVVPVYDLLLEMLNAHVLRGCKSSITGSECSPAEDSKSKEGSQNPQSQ

| SMILES | IC50 [1, 2] [µM] | EC50 (MCF-7 cells; [3]) [µM] | IC50 (MCF-7 cells; Homo sapiens) [nM] | IC50 (hER-β; [4]) | EC50 (Ishikawa cells; Homo sapiens) [µM] | IC50 (Ishikawa cells; Homo sapiens) [nM] | IC50 (hER-β) [µM] | EC50 (MCF-7 cells; agonist mode) [µM] | EC50 (Ishikawa cells) [µM] | IC50 (Ishikawa cells) [nM] | IC50 [1] [µM] |
| --- | --- | --- | --- | --- | --- | --- | --- | --- | --- | --- | --- |
| CC(C)(C)C(=O)Oc1ccc2c(c1)OC(C)(c1ccc(OCCCN3CCCCC3)cc1)C1=C2COc2cc(OC(=O)C(C)(C)C)ccc21 (centres unmarked) [Compound 43, 2,2-Dimethyl-propionic acid 8-(2,2-dimethyl-propionyloxy)-11-methyl-11-[4-(3-piperidin-1-yl-propoxy)-phenyl]-5,11-dihydro-chromeno[4,3-c]chromen-2-yl ester] | 0.62 | > 10 | > 1000 | 0.165 µM | > 10 | 1600 | – | – | – | – | – |
| CN(C)c1ccc(C2Oc3cc(O)ccc3C3=C2c2ccc(O)cc2OC3)cc1 (centres unmarked) [Compound 26, 5-[4-Dimethylamino-phenyl]-5,11-dihydro-chromeno[4,3-c]chromene-2,8-diol] | 0.014 | 0.0643 | > 10000 | 0.02 µM | > 10 | 180 | – | – | – | – | – |
| COc1ccc2c(c1)OC(c1ccc(OCCN3CCCCC3)cc1)C1=C2CCOc2cc(OC)ccc21 (single isomer, unassigned) [Compound 300, 5R*-(+)-1-{2-[4-(2,8-Dimethoxy-11,12-dihydro-5H-6,13-dioxa-benzo[3,4]cyclohepta[1,2-a]naphthalen-5-yl)-phenoxy]-ethyl}-piperidine] | – | – | 17400 | – | – | > 100000 | > 10 | – | – | – | 0.06 |
| Oc1ccc2c(c1)OC(c1ccccc1)C1=C2COc2cc(O)ccc21 (centres unmarked) [Compound 6, 5-Phenyl-5,11-dihydro-chromeno[4,3-c]chromene-2,8-diol] | – | 0.097 | > 10000 | – | 0.033 | > 10000 | 0.016 | – | – | – | – |
| CC1(c2ccc(OCCN3CCCCC3)cc2)Oc2cc(O)ccc2C2=C1c1ccc(O)cc1OC2 (centres unmarked) [Compound 29] | 0.004 | – | – | 0.017 µM | – | – | – | – | – | – | – |
| CC(C)(C)C(=O)Oc1ccc2c(c1)OC(c1ccc(OCCN3CCCCC3)cc1)C1=C2C(O)Oc2cc(OC(=O)C(C)(C)C)ccc21 (centres unmarked) [Compound 28] | 0.14 | – | – | 6.25 µM | – | – | – | – | – | – | – |
| COc1ccc2c(c1)OCCC1=C2C(c2ccc(OCCN3CCCCC3)cc2)Oc2cc(O)ccc21 (single isomer, unassigned) [Compound 301, 2-Methoxy-5R*-(+)-[4-(2-piperidin-1-yl-ethoxy)-phenyl]-11,12-dihydro-5H-6,13-dioxa-benzo[3,4]cyclohepta[1,2-a]naphthalen-8-ol] | 0.0041 | – | – | 0.189 µM | – | – | – | – | – | – | – |
| COc1ccc2c(c1)OC(c1ccc(OCCN3CCCCC3)cc1)C1=C2CCOc2cc(O)ccc21 (single isomer, unassigned) [Compound 302, 8-Methoxy-5R*-(+)-[4-(2-piperidin-1-yl-ethoxy)-phenyl]-11,12-dihydro-5H-6,13-dioxa-benzo[3,4]cyclohepta[1,2-a]naphthalen-2-ol] | 0.0116 | – | – | 0.355 µM | – | – | – | – | – | – | – |

Continued, in another order:

| IC50 [1, 2] [µM] | EC50 (MCF-7 cells; [3]) [µM] | IC50 (MCF-7 cells; Homo sapiens) [nM] | IC50 (hER-β; [4]) | EC50 (Ishikawa cells; Homo sapiens) [µM] | IC50 (Ishikawa cells; Homo sapiens) [nM] | IC50 (hER-β) [µM] | EC50 (MCF-7 cells; agonist mode) [µM] | EC50 (Ishikawa cells) [µM] | IC50 (Ishikawa cells) [nM] | SMILES | IC50 [1] [µM] |
| --- | --- | --- | --- | --- | --- | --- | --- | --- | --- | --- | --- |
| 0.0023 | > 10 | 777 | 0.084 µM | > 10 | 110 | – | – | – | – | Oc1ccc2c(c1)OC(c1ccc(OCCN3CCCCC3)cc1)C1=C2COc2cc(O)ccc21 (centres unmarked) [Compound 9, 5-[4-(2-Piperidin-1-yl-ethoxy)-phenyl]-5,11-dihydrochromeno[4,3-c]chromene-2,8-diol] | – |
| – | > 10 | 1400 | – | > 10 | 228 | 0.026 | – | – | – | Oc1ccc2c(c1)OC(c1ccc(OCCN3CCOCC3)cc1)C1=C2COc2cc(O)ccc21 (centres unmarked) [Compound 13, 5-[4-(2-Morphlin-4-yl-ethoxy)-phenyl]-5,11-dihydrochromeno[4,3-c]chromene-2,8-diol] | – |
| 0.015 | > 10 | 970 | 0.011 µM | > 10 | 830 | – | – | – | – | CN(C)CCOc1ccc(C2Oc3cc(O)ccc3C3=C2c2ccc(O)cc2OC3)cc1 (centres unmarked) [Compound 21, 5-[4-(2-Dimethylamino-ethoxy)-phenyl]-5,11-dihydrochromeno[4,3-c]chromene-2,8-diol] | – |
| – | > 10 | 3580 | – | > 10 | 513 | 0.031 | – | – | – | Oc1ccc2c(c1)OC(c1ccc(OCCN3CCCCCC3)cc1)C1=C2COc2cc(O)ccc21 (centres unmarked) [Compound 17, 5-[4-(2-Azepan-1-yl-ethoxy)-phenyl]-5,11-dihydrochromeno[4,3-c]chromene-2,8-diol] | – |
| 0.0019 | > 10 | 713 | 0.099 µM | > 10 | 250 | – | – | – | – | CCN(CC)CCOc1ccc(C2Oc3cc(O)ccc3C3=C2c2ccc(O)cc2OC3)cc1 (centres unmarked) [Compound 19, 5-[4-(2-Diethylamino-ethoxy)-phenyl]-5,11-dihydrochromeno[4,3-c]chromene-2,8-diol] | – |
| – | – | – | 0.017 µM and 0.028 µM | – | – | – | > 10 | > 10 | 112 | Oc1ccc2c(c1)O[C@@H](c1ccc(OCCN3CCCCC3)cc1)C1=C2COc2cc(O)ccc21 (stereo in doubt) [Compound 15, 5S*-(+)-[4-(2-Piperidin-1-yl-ethoxy)-phenyl]-5,11-dihydro-chromeno[4,3-c]chromene-2,8-diol] | – |
| – | > 10 | 246 | – | – | 80 | 0.7 | – | – | – | Oc1ccc2c(c1)OC(c1ccc(OCCN3CCCC3)cc1)C1=C2COc2cc(O)ccc21 (centres unmarked) [Compound 11, 5-[4-(2-Pyrrolidin-1-yl-ethoxy)-phenyl]-5,11-dihydrochromeno[4,3-c]chromene-2,8-diol] | – |
